In PubChem BioAssay AID1259407 (Chemical Carcinogenesis Research Information System (CCRIS), 2018):
Calls of active or inactive are those of the source. The rule behind the calls is not given here.

System: CCRIS mutagenicity, Ames/micronucleus/aberration tests
Assay: CCRIS mutagenicity studies
[1] = Test System: AMES SALMONELLA TYPHIMURIUM, Strain/Indicator: TA98, Metabolic Activation: NONE, Method: STANDARD PLATE
[2] = Test System: AMES SALMONELLA TYPHIMURIUM, Strain/Indicator: TA100, Metabolic Activation: NONE, Method: STANDARD PLATE
[3] = Test System: AMES SALMONELLA TYPHIMURIUM, Strain/Indicator: TA1535, Metabolic Activation: NONE, Method: STANDARD PLATE
[4] = Test System: AMES SALMONELLA TYPHIMURIUM, Strain/Indicator: TA1538, Metabolic Activation: NONE, Method: STANDARD PLATE

Measured: mutagenic call

COC1=CC=CC=CC1
inactive: Test System: AMES SALMONELLA TYPHIMURIUM, Strain/Indicator: TA98, Metabolic Activation: NONE, Method: PREINCUBATION inactive; negative | [1] inactive; negative | Test System: AMES SALMONELLA TYPHIMURIUM, Strain/Indicator: TA98, Metabolic Activation: RAT, LIVER, S-9, Method: PREINCUBATION inactive; negative | Test System: AMES SALMONELLA TYPHIMURIUM, Strain/Indicator: TA98, Metabolic Activation: RAT, LIVER, S-9, Method: STANDARD PLATE inactive; negative | Test System: AMES SALMONELLA TYPHIMURIUM, Strain/Indicator: TA100, Metabolic Activation: NONE, Method: PREINCUBATION inactive; negative | [2] inactive; negative | Test System: AMES SALMONELLA TYPHIMURIUM, Strain/Indicator: TA100, Metabolic Activation: RAT, LIVER, S-9, Method: PREINCUBATION inactive; negative | Test System: AMES SALMONELLA TYPHIMURIUM, Strain/Indicator: TA100, Metabolic Activation: RAT, LIVER, S-9, Method: STANDARD PLATE inactive; negative | Test System: AMES SALMONELLA TYPHIMURIUM, Strain/Indicator: TA1535, Metabolic Activation: NONE, Method: PREINCUBATION inactive; negative | [3] inactive; negative | Test System: AMES SALMONELLA TYPHIMURIUM, Strain/Indicator: TA1535, Metabolic Activation: RAT, LIVER, S-9, Method: PREINCUBATION inactive; negative | Test System: AMES SALMONELLA TYPHIMURIUM, Strain/Indicator: TA1535, Metabolic Activation: RAT, LIVER, S-9, Method: STANDARD PLATE inactive; negative | Test System: AMES SALMONELLA TYPHIMURIUM, Strain/Indicator: TA1537, Metabolic Activation: NONE, Method: PREINCUBATION inactive; negative | Test System: AMES SALMONELLA TYPHIMURIUM, Strain/Indicator: TA1537, Metabolic Activation: RAT, LIVER, S-9, Method: PREINCUBATION inactive; negative | Test System: AMES SALMONELLA TYPHIMURIUM, Strain/Indicator: TA1538, Metabolic Activation: NONE, Method: PREINCUBATION inactive; negative | Test System: AMES SALMONELLA TYPHIMURIUM, Strain/Indicator: TA1538, Metabolic Activation: RAT, LIVER, S-9, Method: PREINCUBATION inactive; negative | Test System: MOUSE LYMPHOMA, Strain/Indicator: L5178Y (TK+/TK-), Metabolic Activation: NONE inactive; negative
active: [4] active; positive | Test System: AMES SALMONELLA TYPHIMURIUM, Strain/Indicator: TA1538, Metabolic Activation: RAT, LIVER, S-9, Method: STANDARD PLATE active; positive | Test System: CHINESE HAMSTER V-79, Strain/Indicator: V-79/8-AZAGUANINE (HGPRT), Metabolic Activation: NONE, Method: STANDARD PLATE active; positive | Test System: CHINESE HAMSTER V-79, Strain/Indicator: V-79/8-AZAGUANINE (HGPRT), Metabolic Activation: RAT, LIVER, S-9, Method: STANDARD PLATE active; positive | Test System: MOUSE LYMPHOMA, Strain/Indicator: L5178Y (TK+/TK-), Metabolic Activation: RAT, LIVER, S-9 active; positive | Test System: MOUSE LYMPHOMA, Strain/Indicator: L5178Y (TK+/TK-), Metabolic Activation: RAT, LIVER, S-9, AROCLOR 1254 active; positive

O=C(O)C[C@H](NC(=O)COc1cc(Cl)c(Cl)cc1Cl)C(=O)O
inactive: Test System: AMES SALMONELLA TYPHIMURIUM, Strain/Indicator: TA97, Metabolic Activation: NONE, Method: STANDARD PLATE inactive; negative | Test System: AMES SALMONELLA TYPHIMURIUM, Strain/Indicator: TA97, Metabolic Activation: RAT, LIVER, S-9, AROCLOR 1254, Method: STANDARD PLATE inactive; negative | [1] inactive; negative | Test System: AMES SALMONELLA TYPHIMURIUM, Strain/Indicator: TA98, Metabolic Activation: RAT, LIVER, S-9, AROCLOR 1254, Method: STANDARD PLATE inactive; negative | [2] inactive; negative | Test System: AMES SALMONELLA TYPHIMURIUM, Strain/Indicator: TA100, Metabolic Activation: RAT, LIVER, S-9, AROCLOR 1254, Method: STANDARD PLATE inactive; negative | [3] inactive; negative | Test System: AMES SALMONELLA TYPHIMURIUM, Strain/Indicator: TA1535, Metabolic Activation: RAT, LIVER, S-9, AROCLOR 1254, Method: STANDARD PLATE inactive; negative | [4] inactive; negative | Test System: AMES SALMONELLA TYPHIMURIUM, Strain/Indicator: TA1538, Metabolic Activation: RAT, LIVER, S-9, AROCLOR 1254, Method: STANDARD PLATE inactive; negative

Clc1ccc2c(c1)oc1ccccc12
active: [1] active; positive | Test System: AMES SALMONELLA TYPHIMURIUM, Strain/Indicator: TA98, Metabolic Activation: RAT, LIVER, S-9, PHENOBARBITAL AND NAPHTHOFLAVONE, Method: STANDARD PLATE active; positive | [2] active; positive | Test System: AMES SALMONELLA TYPHIMURIUM, Strain/Indicator: TA100, Metabolic Activation: RAT, LIVER, S-9, PHENOBARBITAL AND NAPHTHOFLAVONE, Method: STANDARD PLATE active; positive

N=C(N)c1ccc(-c2cc3ccc(C(=N)N)cc3[nH]2)cc1
inactive: [1] inactive; negative | Test System: AMES SALMONELLA TYPHIMURIUM, Strain/Indicator: TA98, Metabolic Activation: RAT, LIVER, S-9, PHENOBARBITAL, Method: STANDARD PLATE inactive; negative | [2] inactive; negative | Test System: AMES SALMONELLA TYPHIMURIUM, Strain/Indicator: TA100, Metabolic Activation: RAT, LIVER, S-9, PHENOBARBITAL, Method: STANDARD PLATE inactive; negative | Test System: E. COLI, Strain/Indicator: WP2, Metabolic Activation: NONE, Method: PREINCUBATION inactive; negative

O=C(O)[C@@H]1CSCN1
inactive: Test System: AMES SALMONELLA TYPHIMURIUM, Strain/Indicator: TA102, Metabolic Activation: NONE, Method: STANDARD PLATE inactive; negative | Test System: AMES SALMONELLA TYPHIMURIUM, Strain/Indicator: TA102, Metabolic Activation: RAT, LIVER, S-9, PHENOBARBITAL, Method: STANDARD PLATE inactive; negative | Test System: AMES SALMONELLA TYPHIMURIUM, Strain/Indicator: TA104, Metabolic Activation: NONE, Method: STANDARD PLATE inactive; negative | Test System: AMES SALMONELLA TYPHIMURIUM, Strain/Indicator: TA104, Metabolic Activation: RAT, LIVER, S-9, PHENOBARBITAL, Method: STANDARD PLATE inactive; negative
